Consider three compounds from article PMC3873925, “Peptide-Mediated Liposomal Doxorubicin Enhances Drug Delivery Efficiency and Therapeutic Efficacy in Animal Models” (PLoS ONE, 2013).

One data set concerns LL/2-derived tumors. Kind of data set: Syngenic animal model. Format: in vivo, C57BL/6 mice. The settings on record: five injections. The procedure: C57BL/6 mice (6-week-old, NLAC) were injected s.c. in the dorsolateral flank with 2×10^6 LL/2 cells in 100 µL serum-free media. […] The dosage of SP-5-2-LD was 1 or 2 mg/kg, injected twice a week for four weeks. Mouse body weight and tumor size were measured twice a week. Tumor volumes were calculated using the equation: length × (width)^2 ×0.52 and presented as standard error of the mean. This study used humane endpoint by determining the tumor size (>10% of body weight) or mouse weight loss (>20% of body weight). Mice were observed twice a week and given soft diet. Animal care was carried out in accordance with the guidelines of Academia Sinica, Taiwan.

For a further data set, the system named is LL/2 cells. Put plainly: Lung metastasis animal model. It is filed as in vivo. The conditions noted are these: 2 mg/kg i.v. twice a week, eight injections (16 mg/kg total). The method, then: LL/2 cells were washed twice by centrifugation in media without serum at room temperature, and re-suspended in media at 4°C prior to injection. Cell viability was determined by trypan blue exclusion, and only cell suspensions with greater than 95% viability and without cell clumping were used. Cells (1×10^5 cells/mouse) were inoculated via the lateral tail vein of 6-week-old female C57BL/6 mice. Mice were then treated with different formulations of anti-cancer drugs. The dosage was 1 or 2 mg/kg twice a week for four weeks. Mouse body weight and survival rate were measured twice a week. The endpoint was determined by the mouse weight loss (>20% of body weight) or mouse activity assessment (hunching, stationary, ruffling and poor grooming). Mice were observed every day and given soft diet. Animal care was carried out in accordance with the guidelines of Academia Sinica, Taiwan.

Data set [1] can be described thus: Pharmacokinetic and biodistribution studies in H460 xenograft-bearing mice. Format: in vivo, NOD/SCID mice. The settings on record: 2 mg/kg i.v. The procedure: Human cancer xenografts were established in NOD/SCID mice (NLAC). H460 cells (5×10^6) were injected subcutaneously (s.c.) into the dorsolateral flanks of 4-week-old mice. […] At selected time points, three mice in each group were anaesthetized and sacrificed with 50% CO2 containing 50% O2. Blood samples were collected through submaxillary punctures, and plasma samples were prepared. After perfusion, xenograft tumors and mouse organs were removed and homogenized. Tumor cell nuclei were isolated and nuclear doxorubicin was extracted as described previously, [32]. The total doxorubicin concentration was measured as described by Mayer et al.. Total doxorubicin was quantified using spectrofluorometry at λex 485/20 nm and λem 645/40 nm (Synergy HT Multi-Detection Microplate Reader, BioTek Instruments, Winooski, VT).
Tissue concentrations of doxorubicin were expressed as microequivalents per milliliter of plasma or per gram of tissue. A standard doxorubicin curve was prepared in control homogenates by following the above extraction procedure. Drug levels were estimated on the basis of doxorubicin fluorescent equivalents.

Data set [2] has as its system H460 cells. Kind of data set: Orthotopic lung adenocarcinoma model. Format: in vivo, SCID mice. The conditions noted are these: 1 mg/kg i.v. twice a week, eight injections, started five days after orthotopic injection. The method, then: SCID mice (4-week-old) were anesthetized with isoflourane mixed with oxygen and placed in the right lateral decubitus position. The skin overlying the left chest wall in the mid-axillary line was treated with alcohol, and the underlying chest wall and intercostal spaces were visualized. H460 cells (5×10^5; single-cell suspensions of over 90% viability as determined by trypan blue exclusion) in 50 µL serum-free media plus Matrigel Matrix (BD Biosciences) (1∶1) were injected into the left lateral thorax, at the lateral dorsal axillary line. After tumor injection, the mice were turned to the left lateral decubitus position and observed for 45 to 60 minutes until fully recovered. Mice were then treated with different formulations of anti-cancer drugs. The dosage was 1 mg/kg twice a week for four weeks. Mouse body weight and survival rate were measured twice a week. The endpoint was determined by the mouse weight loss (>20% of body weight) or mouse activity assessment (hunching, stationary, ruffling and poor grooming). Mice were observed every day and given soft diet. Animal care was carried out in accordance with the guidelines of Academia Sinica, Taiwan.

Data set [3] deals with H460 cells. Kind of data set: Peptide-binding assay (cellular ELISA). Format: cell-based, human. The method, then: (§1) H460 cells were seeded in 96-well ELISA plates at 1×10^4 per well. After 24-hour incubation, cells were fixed with 3.7% paraformaldehyde for 10 min at 4°C and then blocked with 1% BSA in PBS for 1 hour at room temperature. Serial diluted biotinylated peptides were incubated with cells for 1 hour at room temperature. After twice washing with PBS, cells were incubated with HRP-conjugated streptavidin (1∶5000 dilution) for 1 hour and then washed with PBS supplemented with 0.1% tween-20 for four times. Binding activity was assessed by cellular ELISA with optical density at 490 nm. For competition assay, cells were firstly incubated with unlabeled peptides at room temperature for 1 hour before incubated with 10 µg/ml biotinylated SP5-2 peptides.
(In general: In an ELISA, binding on a coated surface is turned into a signal by an enzyme label.)

The subject of data set [4] is H460 cells. Put plainly: Peptide competition assay (cellular ELISA). Format: cell-based, human. The conditions noted are these: B-SP5-2 10 µg/ml, unlabeled peptide 22 to 600 µg/ml. The procedure: as §1

Turning to `COc1cccc2c1C(=O)c1c(O)c3c(c(O)c1C2=O)C[C@@](O)(C(=O)CO)C[C@@H]3O[C@H]1C[C@H](N)[C@H](O)[C@H](C)O1` [FD, doxorubicin], in the data set on LL/2-derived tumors (1 mg/kg i.v. twice a week), the “tumor size, fold larger than in equivalent SP5-2-LD-treated mice” value was 1.55 fold. Besides, the “tumor size, fold larger than in equivalent SP5-2-LD-treated mice” value with LL/2-derived tumors (2 mg/kg i.v. twice a week) stood at 2.38 fold. In the data set on LL/2 cells, this compound registered a median overall survival of 21 days. Also, in data set [1], the “AUC0-72 h Blood” value worked out at 5.9 µg·h/g, the “AUC0-72 h Heart” value came to 26.3 µg·h/g, the “AUC0-72 h Kidney” value came to 87.2 µg·h/g and the “AUC0-72 h Liver” value is listed as 293.6 µg·h/g. Further, in data set [1], the “AUC0-72 h Lung” value came to 421.2 µg·h/g. Moreover, in data set [1] (doxorubicin bound to tumor cell nuclei), the “AUC0-72 h Nuclei” value came out at 5.5 µg·h/g. Besides, in data set [1] (doxorubicin in tumor tissue), the “AUC0-72 h Tumor” value turned out to be 8.5 µg·h/g. Moreover, the mean life spans with H460 cells [2] is listed as 25 days.

With “TDSILRSYDGGG [MP5-2, mutant peptide, WTY motif changed to GGG]”, the binding activity entry with H460 cells [3] (H460 and LL/2 cells, WTY motif changed to GGG) was “remarkable loss of binding activity”.

As for TDSILRSYDWTY [SP5-2], the “minimum binding activity started at” value in the data set with H460 cells [3] (H460 cells, biotinylated peptide) is 1 µg/mL. For the same compound, in the data set with H460 cells [4], the “inhibition of Biotin-labeled SP5-2 binding to H460 cells by unlabeled peptide” value is recorded as “competitively inhibited”.
